Experimental data: patent publication EP3375430A1, “FRAGRANCE COMPOSITIONS” (Takasago International Corporation, priority 2017, dated 2018)
Each block holds one molecule with its values, some of them ahead of it.

Key:
[1] = Amount of fragrance ingredients retained on paper blotter after evaporation (ethanol extraction, GC-MS); type: physicochemical
Method in brief: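 100 µL of fragrance formulation applied to paper blotters kept at 32°C open to air; at each time three blotters extracted 1 h in ethanol with methyl decanoate internal standard and analysed by GC-MS (HP-5MS, 50–280°C). Amounts averaged over triplicates and expressed as percent of time-zero level.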

[2] = Headspace concentration of fragrance ingredients over blotter (thermal desorption GC-MS); type: physicochemical
Procedure: The headspace concentration of individual ingredients of fragrance TAK, as formulated in either a conventional EdT (EdT1) or a fragrance composition of the invention (C1), was assessed by the method described below.
A 10 cm length was cut from a standard perfumers' blotter. A sample of 100µL volume was applied to the upper surface of the blotter with a syringe. The blotter was placed on a hot plate thermostatted at 32°C and left to equilibrate for 5 minutes. Two desorption tubes (6cm length 4mm internal diameter) each containing 2 cm length of Tenax TA adsorbent were fitted to the glass part of a headspace apparatus shown in figure 9. The glass part was fitted over the blotter, a metering pump was connected to one of the desorption tubes and air was drawn through the apparatus flushing the headspace over the blotter at a rate of 17mL/min. Sampling continued for about 16.5 minutes until 280mL of air had been extracted. Then the outlet desorption tube was analysed by gas chromatography as described below. The glass part was removed from the blotter which was left on the hotplate until the next sampling time when two fresh desorption tubes were fitted and the extraction procedure repeated for a further 280mL of extracted headspace.
• Initial Temp: 50°C • Initial Time: 5 min • Rate: 3°C /min • Final Temp: 250°C • Final Time: 20 min • Run Time: 91.67 min
• Column: HP-5MS 30m * 0.25mm * 0.25µm • Gas: Helium • Constant pressure 12.675 psi
• Initial Temp: -30°C • Equilibration Time: 0.05 min • Initial Time: 0.00 min • Rate 12°C / min • End Temp: 260°C • Hold Time: 10 min
Temperature program • Initial Temp: 35°C • Delay Time: 0.30 min • Initial Time: 0.00 min • Rate: 30°C / min • End Temp: 250°C • Hold Time: 5.00 min
TDU Settings • Transfer Temp: 250°C • Transfer Temp Mode: Fixed • Desorption Mode: splitless • Sample mode: Retain tube - standby cooling • Standby Temp: 50°C
Detector MS • MS 5973 • Mass range: 35 to 350 • Threshold: 150 • Mass Quad: 150°C • Mass Source: 230°C
Following the procedure of example 2, the headspace concentration of representative ingredients of fragrance COM1 was determined. COM1 was dosed at 5 and 20 % either in control EdT3 and EdT4 or in compositions of the invention C7 and C8, as shown in table 10.
The headspace concentration of individual ingredients of fragrance TAK (see Table 1), as formulated in either a conventional EdT (EdT1) or fragrance compositions of the invention (C14, C15), was assessed by the method described in example 2.

amount of fragrance ingredient retained on blotter (percentage of the initial amount) ([1]; Table 3, fragrance TAK in C1, 15 min, 32°C): 78% | amount of fragrance ingredient retained on blotter (percentage of the initial amount) ([1]; Table 3, fragrance TAK in C1, 60 min, 32°C): 79% | amount of fragrance ingredient retained on blotter (percentage of the initial amount) ([1]; Table 3, fragrance TAK in C1, 120 min, 32°C): 75% | amount of fragrance ingredient retained on blotter (percentage of the initial amount) ([1]; Table 3, fragrance TAK in C1, 240 min, 32°C): 72% | amount of fragrance ingredient retained on blotter (percentage of the initial amount) ([1]; Table 3, fragrance TAK in C1, 480 min, 32°C): 51% | amount of fragrance ingredient retained on blotter (percentage of the initial amount) ([1]; Table 3, fragrance TAK in EdT1, 15 min, 32°C): 91% | amount of fragrance ingredient retained on blotter (percentage of the initial amount) ([1]; Table 3, fragrance TAK in EdT1, 60 min, 32°C): 84% | amount of fragrance ingredient retained on blotter (percentage of the initial amount) ([1]; Table 3, fragrance TAK in EdT1, 120 min, 32°C): 75% | amount of fragrance ingredient retained on blotter (percentage of the initial amount) ([1]; Table 3, fragrance TAK in EdT1, 240 min, 32°C): 65% | amount of fragrance ingredient retained on blotter (percentage of the initial amount) ([1]; Table 3, fragrance TAK in EdT1, 480 min, 32°C): 23% | amount of fragrance ingredient retained on blotter (percentage of the initial amount) ([1]; Table 3, fragrance TAK in EdT1 or C1, T0, set at 100% (normalisation)): 100% | amount of fragrance ingredient retained on blotter (percentage of the initial amount) ([1]; Table 4, fragrance TAK in C2, 15 min, 32°C): 98% | amount of fragrance ingredient retained on blotter (percentage of the initial amount) ([1]; Table 4, fragrance TAK in C2, 480 min, 32°C): 49% | amount of fragrance ingredient retained on blotter (percentage of the initial amount) ([1]; Table 4, fragrance TAK in EdT1, 15 min, 32°C): 87% | amount of fragrance ingredient retained on blotter (percentage of the initial amount) ([1]; Table 4, fragrance TAK in EdT1, 480 min, 32°C): 18% | amount of fragrance ingredient retained on blotter (percentage of the initial amount) ([1]; Table 4, fragrance TAK in EdT1 or C2, T0, set at 100% (normalisation)): 100% | amount of fragrance ingredient retained on blotter (percentage of the initial amount) ([1]; Table 5, fragrance TAK in C3, 15 min, 32°C): 88% | amount of fragrance ingredient retained on blotter (percentage of the initial amount) ([1]; Table 5, fragrance TAK in C3, 60 min, 32°C): 92% | amount of fragrance ingredient retained on blotter (percentage of the initial amount) ([1]; Table 5, fragrance TAK in C3, 120 min, 32°C): 90% | amount of fragrance ingredient retained on blotter (percentage of the initial amount) ([1]; Table 5, fragrance TAK in C3, 240 min, 32°C): 87% | amount of fragrance ingredient retained on blotter (percentage of the initial amount) ([1]; Table 5, fragrance TAK in C3, 480 min, 32°C): 60% | amount of fragrance ingredient retained on blotter (percentage of the initial amount) ([1]; Table 5, fragrance TAK in C3, 1440 min, 32°C): 45% | amount of fragrance ingredient retained on blotter (percentage of the initial amount) ([1]; Table 5, fragrance TAK in EdT1, 15 min, 32°C): 91% | amount of fragrance ingredient retained on blotter (percentage of the initial amount) ([1]; Table 5, fragrance TAK in EdT1, 60 min, 32°C): 84% | amount of fragrance ingredient retained on blotter (percentage of the initial amount) ([1]; Table 5, fragrance TAK in EdT1, 120 min, 32°C): 75% | amount of fragrance ingredient retained on blotter (percentage of the initial amount) ([1]; Table 5, fragrance TAK in EdT1, 240 min, 32°C): 65% | amount of fragrance ingredient retained on blotter (percentage of the initial amount) ([1]; Table 5, fragrance TAK in EdT1, 480 min, 32°C): 23% | amount of fragrance ingredient retained on blotter (percentage of the initial amount) ([1]; Table 5, fragrance TAK in EdT1, 1440 min, 32°C): 6% | amount of fragrance ingredient retained on blotter (percentage of the initial amount) ([1]; Table 5, fragrance TAK in EdT1 or C3, T0, set at 100% (normalisation)): 100% | amount of fragrance ingredient retained on blotter (percentage of the initial amount) ([1]; Table 6, fragrance TAK in C4, 15 min, 32°C): 99% | amount of fragrance ingredient retained on blotter (percentage of the initial amount) ([1]; Table 6, fragrance TAK in C4, 60 min, 32°C): 92% | amount of fragrance ingredient retained on blotter (percentage of the initial amount) ([1]; Table 6, fragrance TAK in C4, 120 min, 32°C): 88% | amount of fragrance ingredient retained on blotter (percentage of the initial amount) ([1]; Table 6, fragrance TAK in C4, 240 min, 32°C): 87% | amount of fragrance ingredient retained on blotter (percentage of the initial amount) ([1]; Table 6, fragrance TAK in C4, 480 min, 32°C): 52% | amount of fragrance ingredient retained on blotter (percentage of the initial amount) ([1]; Table 6, fragrance TAK in EdT1, 15 min, 32°C): 91% | amount of fragrance ingredient retained on blotter (percentage of the initial amount) ([1]; Table 6, fragrance TAK in EdT1, 60 min, 32°C): 84% | amount of fragrance ingredient retained on blotter (percentage of the initial amount) ([1]; Table 6, fragrance TAK in EdT1, 120 min, 32°C): 75% | amount of fragrance ingredient retained on blotter (percentage of the initial amount) ([1]; Table 6, fragrance TAK in EdT1, 240 min, 32°C): 65% | amount of fragrance ingredient retained on blotter (percentage of the initial amount) ([1]; Table 6, fragrance TAK in EdT1, 480 min, 32°C): 23% | amount of fragrance ingredient retained on blotter (percentage of the initial amount) ([1]; Table 6, fragrance TAK in EdT1 or C4, T0, set at 100% (normalisation)): 100% | headspace concentration in composition C1 compared to control EdT1 ([2]; fragrance TAK, T0 + 8h, Figure 4): significantly greater
SMILES: CC(C=O)Cc1ccc(C(C)(C)C)cc1 (stereo not shown) [Lilial™, 3-(4-tert-Butylphenyl)-2-methylpropanal]

amount of fragrance ingredient retained on blotter (percentage of the initial amount) ([1]; Table 9, fragrance COM1 in C5, T0 + 15 min): 84.6% | amount of fragrance ingredient retained on blotter (percentage of the initial amount) ([1]; Table 9, fragrance COM1 in C5, T0 + 480 min): 19.1% | amount of fragrance ingredient retained on blotter (percentage of the initial amount) ([1]; Table 9, fragrance COM1 in C5, T0 +1440 min): 2.62% | amount of fragrance ingredient retained on blotter (percentage of the initial amount) ([1]; Table 9, fragrance COM1 in C6, T0 + 15 min): 73.2% | amount of fragrance ingredient retained on blotter (percentage of the initial amount) ([1]; Table 9, fragrance COM1 in C6, T0 + 480 min): 14% | amount of fragrance ingredient retained on blotter (percentage of the initial amount) ([1]; Table 9, fragrance COM1 in C6, T0 +1440 min): 3.1% | amount of fragrance ingredient retained on blotter (percentage of the initial amount) ([1]; Table 9, fragrance COM1 in EdT2, C5 or C6, T0, set at 100% (normalisation)): 100% | amount of fragrance ingredient retained on blotter (percentage of the initial amount) ([1]; Table 9, fragrance COM1 in EdT2, T0 + 15 min): 75.7% | amount of fragrance ingredient retained on blotter (percentage of the initial amount) ([1]; Table 9, fragrance COM1 in EdT2, T0 + 480 min): 8.41% | amount of fragrance ingredient retained on blotter (percentage of the initial amount) ([1]; Table 9, fragrance COM1 in EdT2, T0 +1440 min): 4.93% | presence in the headspace of composition C8 compared to control EdT4 ([2]; COM1 dosed at 20 wt%, after 8 hours): more present
SMILES: CC/C=C(\C)C(O)CCCCC (stereo not shown) [Undecavertol™, (E)-4-methyldec-3-en-5-ol]
